# Active and inactive are the calls of the source. The rule behind the calls is not given here.
# Test system: Mus musculus
# Assay: Compound was evaluated for analgesic activity in a mouse hotplate test; IA= Inactive at the dose level of 20 mg/kg
# Format: functional, organism-based
# Parameters: dose 20 mg/kg
row,Structure (SMILES),ED50
1,CCC1CC2(C)c3ccccc3CC(C2C)N1C (centres undefined),inactive
2,C=CC[C@@]1(C)CC2(C)CC(Cc3ccccc32)N1C (some centres undefined),inactive

# Test system: Mus musculus
# Assay: Compound was evaluated for analgesic activity in a mouse hotplate test; IA= Inactive at the dose level of 50 mg/kg
# Format: functional, organism-based
# Parameters: dose 50 mg/kg
row,Structure (SMILES),ED50
1,CC1CN(C)C2Cc3ccc(O)cc3C1(C)C2 (centres undefined),inactive

# Species on record: Mus musculus
# Assay: Compound was evaluated for analgesic activity in a mouse hotplate test
# Format: functional
row,Structure (SMILES),ED50 [mg/kg]
1,C=CC[C@]1(C)CC2(C)CC(Cc3ccccc32)N1C (some centres undefined),3.7
2,C=CCN1C(C)CC2(C)CC1Cc1ccc(O)cc12 (centres undefined),4.2
3,CN1CC[C@]23c4c5ccc(O)c4O[C@H]2[C@@H](O)C=C[C@H]3[C@H]1C5.CN1CC[C@]23c4c5ccc(O)c4O[C@H]2[C@@H](O)C=C[C@H]3[C@H]1C5.O=S(=O)(O)O,1.2
4,CC1CC2(C)CC(Cc3ccc(O)cc32)N1C (centres undefined),1.1
5,C[C@H]1CC2(C)CC(Cc3ccccc32)N1C (some centres undefined),24.7
6,C[C@@H]1CC2(C)CC(Cc3ccccc32)N1C (some centres undefined),10.6
7,CC1CC2(C)CC(Cc3ccc(O)cc32)N1CC1CC1 (centres undefined),2.4
8,CC1CC2(C)c3ccccc3CC(C2C)N1C (centres undefined),14.8

# Species on record: Mus musculus
# Assay: Compound was evaluated for analgesic activity in a mouse hotplate test; b= low level of activity exhibited which did not follow a dose-response relationship
# Format: functional, organism-based
row,Structure (SMILES),ED50
1,CC1C2Cc3ccccc3C1(C)CC(CCc1ccccc1)N2C (centres undefined),Low level of activity
2,CN1C2Cc3ccccc3C(C)(C2)CC1(C)Cc1ccccc1 (centres undefined),Low level of activity
3,CC1C2Cc3ccccc3C1(C)CC(Cc1ccccc1)N2C (centres undefined),Low level of activity

# Reference: ChEMBL document CHEMBL1123107, “Synthesis, stereochemistry, and analgesic activity of 4-mono- and 4,4-disubstituted 1,2,3,4,5,6-hexahydro-2,6-methano-3-benzazocines” (1985)
